Results from patent publication US9707228B2, “Dry powder formulation” (Agency for Science, Technology and Research, priority 2012, dated 2017).
Counter-ions that a name gives are not always drawn.

Tested on: Pseudomonas aeruginosa
Assay: MIC determination via the microdilution method
Assay type: cell-based
Conditions: read-out: minimum inhibitory concentration (MIC)
From the text: Ciprofloxacin hydrochloride and gatifloxacin hydrochloride were supplied by Junda Pharmaceutical Co. Ltd (of Guangzhou of China). The aqueous solution of ciprofloxacin hydrochloride and gatifloxacin hydrochloride (at a weight ratio of 1:2.5) was obtained by dissolving both drugs together in water. The weight ratio of the individual quinolone in the solution (as well as in the resultant spray-dried particle) was based on the quinolone's minimum inhibitory concentration (MIC). The MIC was experimentally determined and a ratio of the quinolones was obtained as a guideline in developing the final workable proportion. The quinolones' MIC values were important as they provided preliminary guidance on the required therapeutic dose of each quinolone in the binary (SD-CIP/GAT) powder formulation (i.e. combination ratios). The MICs of the various quinolones for the bacteria Pseudomonas aeruginosa different bacteria were determined via the microdilution method and used to determine the desired binary drug proportions. For the bacteria Pseudomonas aeruginosa, since MICCIP:MICGAT is 1:2 (actual values are 0.25 μg/ml:0.5 μg/ml), the binary formulation was composed of CIP:GAT in the ratio of 1:2. […]

Row | MIC [µg/mL] | SMILES
1 | 0.25 | O=C(O)c1cn(C2CC2)c2cc(N3CCNCC3)c(F)cc2c1=O [CIP, ciprofloxacin hydrochloride]
2 | 0.5 | COc1c(N2CCNC(C)C2)c(F)cc2c(=O)c(C(=O)O)cn(C3CC3)c12 (centres unmarked) [GAT, gatifloxacin hydrochloride]
